Legend:
GLUTag cells [1] = assay: Calcium flux (Calcium 6) in control-transduced GLUTag cells; type: cell-based, murine; set-up: Mean Diff.: unit not given here; conditions: for Mean Diff.: Figure 1B, Ctl
Protocol: (§1) GLUTag cells were maintained in Dulbecco’s Modified Eagle Medium (DMEM) supplemented with 10% fetal bovine serum and 1% penicillin–streptomycin in a humidified incubator at 37 °C and 5% CO2. For adenovirus transduction, GLUTag cells were seeded into poly-D-lysine coated 96-well plates or 4-chamber slides. The next day, cells were transduced with adenoviruses (100–1250 viral particles per cell at time of seeding) as indicated. After 24–30 h, adenovirus-containing media was changed to serum-free growth media for overnight serum starvation. The following day, GLUTag cells were used for cAMP or calcium signaling assays, GLP-1 secretion assays, or immunostaining and imaging.
(§2) GLUTag cells were seeded into black, clear bottom, poly-D-lysine-coated 96-well plates. Cells were transduced and serum starved as specified above. Growth medium was then replaced with 100 μL/well assay buffer (HBSS, 20 mM HEPES, pH 7.4) and 100 μL/well Calcium 6 loading dye (R8190; Molecular Devices, San Jose, CA, USA). During dye loading, cells were incubated at 37 °C and 5% CO2 for 2 h. MDL29,951 or KCl was added to the wells and fluorescence (485 nm excitation, 525 nm emission, and 515 nm automatic emission cutoff) was measured using a Molecular Devices FlexStation3 (Molecular Devices) at 37 °C. For experiments with PTX, cells were pretreated with 100 ng/mL PTX overnight and 100 ng/mL PTX was included with Calcium 6 loading dye for calcium flux assays. For experiments with YM-254890, cells were pretreated for 30 min at 37 °C.

GLUTag cells [2] = assay: GLP-1 secretion from control-transduced or untransduced GLUTag cells; type: cell-based, murine
Protocol: as §1
(§3) GLUTag cells were seeded into poly-D-lysine-coated 96-well plates and transduced with adenovirus as specified above and then tested for GLP-1 secretion. Medium was removed and cells were washed two times with GLP-1 secretion buffer (138 mM NaCl, 4.5 mM KCl, 4.2 mM NaHCO3, 2.5 mM CaCl2, 1.2 mM MgCl2, 10 mM HEPES, 1 mM glucose, and 0.1% bovine serum albumin, pH 7.4). Cells were stimulated for 2 h with indicated treatments diluted in GLP-1 secretion buffer for a total volume of 200 µL/well at 37 °C and 5% CO2. Plates were then centrifuged at 300× g for 1 min at 4 °C, and 75 µL of the supernatant was removed and frozen at −80 °C until subsequent GLP-1 quantification. Total GLP-1 was quantified using the Meso Scale Discovery Total GLP-1 V-PLEX kit (Rockville, MD, USA; K1503PD) according to manufacturer’s instructions. For PTX treatment conditions, cells were pretreated with 100 ng/mL PTX overnight. For experiments with YM-254890, cells were pretreated for 15 min at 37 °C and 5% CO2.

HEK293 cells = assay: GloSensor cAMP in HEK293 cells transfected with empty vector (EV); type: cell-based; conditions: 100 μM MDL29,951, 3 µM forskolin
Protocol: (§4) HEK293 cells were maintained and transfected as previously described.
(§5) Live-cell, real-time cAMP measurements were performed using Promega (Madison, WI, USA) GloSensor cAMP luminescent biosensor technology. Glosensor cAMP experiments were conducted as previously described in GLUTag cells and HEK293 cells.

hGPR17S = target: T1, hGPR17S (Homo sapiens, UniProt Q13304); assay: Calcium mobilization in HEK293 cells transfected with hGPR17S; type: cell-based
T1 construct: host or cells: HEK293 cells (ATCC CRL-1573), transient transfection
T1 sequence (Q13304 29-367): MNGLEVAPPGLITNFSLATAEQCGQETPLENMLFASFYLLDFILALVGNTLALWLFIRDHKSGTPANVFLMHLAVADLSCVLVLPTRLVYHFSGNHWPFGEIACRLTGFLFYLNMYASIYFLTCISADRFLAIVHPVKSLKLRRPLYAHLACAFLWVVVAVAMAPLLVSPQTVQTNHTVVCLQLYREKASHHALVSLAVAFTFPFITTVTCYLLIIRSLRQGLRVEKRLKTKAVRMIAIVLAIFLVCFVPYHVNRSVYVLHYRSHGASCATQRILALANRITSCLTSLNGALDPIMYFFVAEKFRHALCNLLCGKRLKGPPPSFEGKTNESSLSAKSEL
Protocol: as §4
Calcium flux in HEK293 cells was measured as previously described.

mGPR17 [3] = target: T2, mGPR17 (Mus musculus, UniProt Q6NS65); assay: Membrane β-arrestin recruitment in HEK293 cells transfected with mGPR17; type: cell-based
T2 sequence (Q6NS65 whole entry): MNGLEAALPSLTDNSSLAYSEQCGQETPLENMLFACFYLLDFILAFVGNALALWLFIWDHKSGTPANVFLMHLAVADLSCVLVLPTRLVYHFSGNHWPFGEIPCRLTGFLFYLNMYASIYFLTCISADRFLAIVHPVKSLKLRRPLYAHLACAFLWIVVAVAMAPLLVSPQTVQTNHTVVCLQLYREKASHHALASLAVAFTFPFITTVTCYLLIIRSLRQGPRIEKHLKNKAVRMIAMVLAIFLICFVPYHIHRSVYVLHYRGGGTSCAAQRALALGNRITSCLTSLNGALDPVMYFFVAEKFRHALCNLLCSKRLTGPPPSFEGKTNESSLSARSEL
Protocol: Membrane β-arrestin recruitment measurements were conducted using a luminescent membrane β-arrestin recruitment reporter assay. HEK293 cells were seeded into white, opaque, poly-D-lysine-coated 96-well plates and transiently transfected using Lipofectamine 3000 (Thermo Fisher Scientific, Waltham, MA, USA) according to the manufacturer’s protocol on the following day. At 48 h post-transfection, cells were washed twice with assay buffer (HBSS, 20 mM HEPES, pH 7.4) and allowed to equilibrate to room temperature for 15 min in assay buffer. Cells were then loaded with coelenterazine h (Nanolight Technology, Prolume Ltd., Lakeside, AZ, USA; 5 µM final concentration) for 5 min in the dark. Luminescence was read using a SpectraMax iD3 (Molecular Devices) with 1 s integration time. Baseline luminescence was read every 2 min for 6 min. Agonist was added and then luminescence was read every 2 min for 30 min.

mGPR17 [4] = target: T2, mGPR17; assay: Calcium flux in GLUTag cells expressing mGPR17; type: cell-based; set-up: host or cells: GLUTag cells, adenoviral transduction; conditions: for Mean Diff. (Tukey's multiple comparisons test, Figure 4C): mGPR17
Protocol: as §1, §2

mGPR17 [5] = target: T2, mGPR17; assay: GLP-1 secretion from GLUTag cells expressing mGPR17; type: cell-based; set-up: host or cells: GLUTag cells, adenoviral transduction; conditions: 100 µM MDL29,951, GLUTag mGPR17
Protocol: as §1
as §3, with “Cells were stimulated for 2 h with indicated treatments diluted in GLP-1 secretion buffer for a total volume of 200 µL/well at 37 °C and 5% CO2.” left out, “For PTX treatment conditions, cells were pretreated with 100 ng/mL PTX overnight. For experiments with YM-254890, cells were pretreated for 15 min at 37 °C and 5% CO2.” left out

hGPR17L = hGPR17L (Homo sapiens, UniProt Q13304); assay: Live-cell GloSensor cAMP in GLUTag cells transfected with hGPR17L; type: cell-based; set-up: host or cells: GLUTag cells (murine enteroendocrine line), adenoviral transduction; conditions: MDL29,951 alone or together with forskolin
Chain of hGPR17L (Q13304 whole entry): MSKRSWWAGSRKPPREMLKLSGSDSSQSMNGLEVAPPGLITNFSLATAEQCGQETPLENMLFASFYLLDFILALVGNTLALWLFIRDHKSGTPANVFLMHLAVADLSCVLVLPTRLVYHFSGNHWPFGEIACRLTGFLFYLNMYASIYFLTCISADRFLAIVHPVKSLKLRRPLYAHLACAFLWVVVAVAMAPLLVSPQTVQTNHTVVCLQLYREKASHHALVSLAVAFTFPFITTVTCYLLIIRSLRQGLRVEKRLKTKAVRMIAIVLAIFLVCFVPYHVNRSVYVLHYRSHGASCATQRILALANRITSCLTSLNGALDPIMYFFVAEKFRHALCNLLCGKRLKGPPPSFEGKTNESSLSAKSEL
Protocol: as §5

[6] = log [MDL29,951] (M) -4.5 vs. Vehicle
[7] = log [MDL29,951] (M) -5.0 vs. Vehicle
[8] = log [MDL29,951] (M) -5.5 vs. Vehicle
[9] = log [MDL29,951] (M) -6.0 vs. Vehicle
[10] = log [MDL29,951] (M) -6.4 vs. Vehicle
[11] = log [MDL29,951] (M) -6.9 vs. Vehicle
[12] = log [MDL29,951] (M) -7.4 vs. Vehicle
[13] = log [MDL29,951] (M) -7.9 vs. Vehicle
[14] = log [MDL29,951] (M) -8.3 vs. Vehicle
[15] = log [MDL29,951] (M) -8.8 vs. Vehicle

O=C(O)CCc1c(C(=O)O)[nH]c2cc(Cl)cc(Cl)c12 [MDL29,951]
peak ΔF/F, calcium flux (GLUTag cells [1]; 30 µM MDL29,951, control-transduced cells): 0.01 ± 0.01 | Mean Diff. (GLUTag cells [1]; [6]): -0.01567 | Mean Diff. (GLUTag cells [1]; [7]): -0.01433 | Mean Diff. (GLUTag cells [1]; [8]): -0.0003333 | Mean Diff. (GLUTag cells [1]; [9]): 0.0006667 | Mean Diff. (GLUTag cells [1]; [10]): 0.01533 | Mean Diff. (GLUTag cells [1]; [11]): 0.002 | Mean Diff. (GLUTag cells [1]; [12]): 0.002667 | Mean Diff. (GLUTag cells [1]; [13]): 0.004333 | Mean Diff. (GLUTag cells [1]; [14]): -0.001667 | Mean Diff. (GLUTag cells [1]; [15]): -0.0003333 | effect on F/I-stimulated GLP-1 secretion (GLUTag cells [2]; 100 nM MDL29,951, control-transduced cells): no effect | effect on GLP-1 secretion under basal conditions (GLUTag cells [2]; 100 nM or 100 µM MDL29,951, control-transduced): no effect | effect on F/I-stimulated GLP-1 secretion (GLUTag cells [2]; 100 µM MDL29,951, control adenovirus): no effect | cAMP Effect of 100 μM MDL (% Inhibition) (HEK293 cells): 7.5±3.2% | Calcium Emax (Mean Peak ΔF/F) (hGPR17S): 1.84±0.11 | Calcium Potency (pEC50) (hGPR17S): 7.37±0.10 | EC50 (hGPR17S; read-out: Calcium Potency EC50): 43 nM | β-arrestin Emax (Peak ΔRLU/RLU) (mGPR17 [3]): 0.54±0.03 | β-arrestin Potency (pEC50) (mGPR17 [3]): 6.69±0.10 | EC50 (mGPR17 [3]; read-out: β-arrestin Potency EC50): 200 nM | maximal calcium stimulation, % of the hGPR17L-WT response (mGPR17 [4]; GLUTag mGPR17): 74 ± 2.7% | pEC50, calcium responses (mGPR17 [4]; GLUTag mGPR17): 6.17 ± 0.04 | EC50 (mGPR17 [4]; GLUTag mGPR17, read-out: EC50, calcium responses): 680 nM | Mean Diff. (Tukey's multiple comparisons test, Figure 4C) (mGPR17 [4]; [6]): 72.98 | Mean Diff. (Tukey's multiple comparisons test, Figure 4C) (mGPR17 [4]; [7]): 62.99 | Mean Diff. (Tukey's multiple comparisons test, Figure 4C) (mGPR17 [4]; [8]): 54.24 | Mean Diff. (Tukey's multiple comparisons test, Figure 4C) (mGPR17 [4]; [9]): 47.28 | Mean Diff. (Tukey's multiple comparisons test, Figure 4C) (mGPR17 [4]; [10]): 29.04 | Mean Diff. (Tukey's multiple comparisons test, Figure 4C) (mGPR17 [4]; [11]): 21.01 | Mean Diff. (Tukey's multiple comparisons test, Figure 4C) (mGPR17 [4]; [12]): 6.844 | Mean Diff. (Tukey's multiple comparisons test, Figure 4C) (mGPR17 [4]; [13]): -0.1174 | Mean Diff. (Tukey's multiple comparisons test, Figure 4C) (mGPR17 [4]; [14]): -1.354 | Mean Diff. (Tukey's multiple comparisons test, Figure 4C) (mGPR17 [4]; [15]): -0.5799 | effect on F/I-stimulated GLP-1 secretion (mGPR17 [5]): significantly inhibited | pattern of cAMP modulation, live-cell bioluminescent cAMP biosensor (hGPR17L): biphasic pattern
